Assays:
Experiment in all cases: KINOMEscan competition binding
Settings in all cases: compound 10.0 µM
KIT (human) = KIT (human) (UniProt P10721)
PLK2 (human) = PLK2 (human) (UniProt Q9NYY3)
CSNK2A2 (human) = CSNK2A2 (human) (UniProt P19784)
PAK1 (human) = PAK1 (human) (UniProt Q13153)
AURKA (human) = AURKA (human) (UniProt O14965)
FGFR4 (human) = FGFR4 (human) (UniProt P22455)
ULK3 (human) = ULK3 (human) (UniProt Q6PHR2)
RPS6KA1 KD2 (human) = RPS6KA1 KD2 (human) (UniProt Q15418)
SRC (human) = SRC (human) (UniProt P12931)
GRK1 (human) = GRK1 (human) (UniProt Q15835)
STK17B (human) = STK17B (human) (UniProt O94768)
SIK1 (human) = SIK1 (human) (UniProt P57059)
Sequence of SIK1 (human) (P57059 whole entry, looked up): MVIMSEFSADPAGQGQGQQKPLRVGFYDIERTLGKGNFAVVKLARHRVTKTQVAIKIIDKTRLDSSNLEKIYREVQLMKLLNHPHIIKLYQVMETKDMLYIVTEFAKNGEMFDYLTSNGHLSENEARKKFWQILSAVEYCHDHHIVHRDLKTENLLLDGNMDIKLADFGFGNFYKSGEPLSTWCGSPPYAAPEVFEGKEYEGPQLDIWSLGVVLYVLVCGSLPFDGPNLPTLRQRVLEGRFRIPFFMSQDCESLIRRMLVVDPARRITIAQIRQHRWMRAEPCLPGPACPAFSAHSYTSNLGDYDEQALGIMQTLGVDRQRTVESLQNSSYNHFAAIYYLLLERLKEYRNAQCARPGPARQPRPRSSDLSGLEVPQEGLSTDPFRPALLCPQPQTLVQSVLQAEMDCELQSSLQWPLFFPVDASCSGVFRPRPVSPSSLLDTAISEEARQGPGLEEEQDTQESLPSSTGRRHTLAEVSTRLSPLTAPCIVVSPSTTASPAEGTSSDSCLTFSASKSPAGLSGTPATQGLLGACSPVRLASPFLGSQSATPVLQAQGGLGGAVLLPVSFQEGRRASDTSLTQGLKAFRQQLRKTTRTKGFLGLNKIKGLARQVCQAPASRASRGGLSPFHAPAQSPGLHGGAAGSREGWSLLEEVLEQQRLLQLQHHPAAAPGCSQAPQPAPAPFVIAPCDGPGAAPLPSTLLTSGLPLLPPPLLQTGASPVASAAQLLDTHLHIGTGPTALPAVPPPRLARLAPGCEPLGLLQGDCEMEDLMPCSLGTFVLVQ

STK24 (human) = STK24 (human) (UniProt Q9Y6E0)
CSF1R (human) = CSF1R (human) (UniProt P07333)
MATK (human) = MATK (human) (UniProt P42679)
STK17A (human) = STK17A (human) (UniProt Q9UEE5)
MAP4K3 (human) = MAP4K3 (human) (UniProt Q8IVH8)
[1] = tested on: ABL1 (human), P00519 [Y253F]
ANKK1 (human) = ANKK1 (human) (UniProt Q8NFD2)
Sequence of ANKK1 (human) (Q8NFD2 whole entry, looked up): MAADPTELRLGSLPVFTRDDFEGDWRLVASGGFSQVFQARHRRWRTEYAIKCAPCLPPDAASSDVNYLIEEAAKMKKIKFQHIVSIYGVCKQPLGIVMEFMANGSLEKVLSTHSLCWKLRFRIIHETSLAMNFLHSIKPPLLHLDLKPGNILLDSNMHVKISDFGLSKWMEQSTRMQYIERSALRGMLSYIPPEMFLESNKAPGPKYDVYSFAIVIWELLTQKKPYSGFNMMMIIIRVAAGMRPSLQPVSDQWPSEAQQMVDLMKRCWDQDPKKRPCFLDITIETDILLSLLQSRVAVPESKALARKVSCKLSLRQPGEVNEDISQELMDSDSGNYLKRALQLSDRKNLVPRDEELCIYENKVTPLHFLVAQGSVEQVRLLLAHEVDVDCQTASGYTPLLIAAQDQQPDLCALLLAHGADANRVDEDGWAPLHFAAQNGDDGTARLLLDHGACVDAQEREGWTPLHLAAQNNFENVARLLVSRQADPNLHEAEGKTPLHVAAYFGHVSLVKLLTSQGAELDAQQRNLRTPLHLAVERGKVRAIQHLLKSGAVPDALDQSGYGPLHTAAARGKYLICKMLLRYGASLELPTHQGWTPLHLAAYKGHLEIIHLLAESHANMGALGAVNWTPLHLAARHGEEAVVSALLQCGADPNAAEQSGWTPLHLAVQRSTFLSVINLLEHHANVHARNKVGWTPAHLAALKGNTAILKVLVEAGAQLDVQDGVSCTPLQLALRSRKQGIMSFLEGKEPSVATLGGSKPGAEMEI

MAP3K10 (human) = MAP3K10 (human) (UniProt Q02779)
CaMK1 (human) = CaMK1 (human) (UniProt Q14012)
MAPKAPK2 (human) = MAPKAPK2 (human) (UniProt P49137)
MYLK2 (human) = MYLK2 (human) (UniProt Q9H1R3)
MAP3K15 (human) = MAP3K15 (human) (UniProt Q6ZN16)
GSK3B (human) = GSK3B (human) (UniProt P49841)
CHEK2 (human) = CHEK2 (human) (UniProt O96017)
MERTK (human) = MERTK (human) (UniProt Q12866)
RPS6KA4 KD2 (human) = RPS6KA4 KD2 (human) (UniProt O75676)
GAK (human) = GAK (human) (UniProt O14976)
Sequence of GAK (human) (O14976 whole entry, looked up): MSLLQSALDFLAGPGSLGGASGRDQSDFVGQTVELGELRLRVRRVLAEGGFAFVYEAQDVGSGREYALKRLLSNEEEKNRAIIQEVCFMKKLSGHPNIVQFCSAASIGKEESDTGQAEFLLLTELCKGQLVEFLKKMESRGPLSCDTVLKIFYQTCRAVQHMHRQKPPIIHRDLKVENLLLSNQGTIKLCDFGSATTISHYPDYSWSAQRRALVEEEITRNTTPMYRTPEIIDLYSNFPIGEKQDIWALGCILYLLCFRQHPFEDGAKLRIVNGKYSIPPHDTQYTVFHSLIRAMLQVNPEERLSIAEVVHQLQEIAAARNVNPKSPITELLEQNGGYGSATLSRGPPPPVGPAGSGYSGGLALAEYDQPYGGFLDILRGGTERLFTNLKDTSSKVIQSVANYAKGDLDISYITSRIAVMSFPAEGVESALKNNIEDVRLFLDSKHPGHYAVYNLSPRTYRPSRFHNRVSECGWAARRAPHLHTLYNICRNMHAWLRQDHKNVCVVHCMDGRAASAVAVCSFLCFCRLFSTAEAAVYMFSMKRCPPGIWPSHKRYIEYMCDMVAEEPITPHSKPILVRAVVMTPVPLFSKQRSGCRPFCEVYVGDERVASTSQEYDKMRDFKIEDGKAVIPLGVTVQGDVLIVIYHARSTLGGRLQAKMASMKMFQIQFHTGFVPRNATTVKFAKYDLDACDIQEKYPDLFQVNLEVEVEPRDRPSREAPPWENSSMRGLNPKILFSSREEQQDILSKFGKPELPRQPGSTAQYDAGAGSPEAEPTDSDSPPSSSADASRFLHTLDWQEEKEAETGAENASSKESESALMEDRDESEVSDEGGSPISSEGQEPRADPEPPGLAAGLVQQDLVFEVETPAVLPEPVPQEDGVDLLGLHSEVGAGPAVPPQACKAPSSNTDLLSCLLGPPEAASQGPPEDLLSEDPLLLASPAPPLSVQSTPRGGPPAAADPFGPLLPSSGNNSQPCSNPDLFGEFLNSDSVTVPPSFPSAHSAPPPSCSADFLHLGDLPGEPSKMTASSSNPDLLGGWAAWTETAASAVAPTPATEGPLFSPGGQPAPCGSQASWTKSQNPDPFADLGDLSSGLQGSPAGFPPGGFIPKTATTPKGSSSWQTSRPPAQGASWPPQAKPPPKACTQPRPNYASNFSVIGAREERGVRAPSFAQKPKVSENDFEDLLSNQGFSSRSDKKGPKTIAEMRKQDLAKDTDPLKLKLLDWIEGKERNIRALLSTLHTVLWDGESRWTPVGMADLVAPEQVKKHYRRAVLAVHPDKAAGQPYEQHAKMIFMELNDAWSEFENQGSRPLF

ROCK1 (human) = ROCK1 (human) (UniProt Q13464)
MAP2K1 (human) = MAP2K1 (human) (UniProt Q02750)
EIF2AK2 (human) = EIF2AK2 (human) (UniProt P19525)
SYK (human) = SYK (human) (UniProt P43405)
PIK3CG (human) = PIK3CG (human) (UniProt P48736)
IRAK1 (human) = IRAK1 (human) (UniProt P51617)
YES1 (human) = YES1 (human) (UniProt P07947)

Sequence of CSNK2A2 (human) (P19784 whole entry, looked up): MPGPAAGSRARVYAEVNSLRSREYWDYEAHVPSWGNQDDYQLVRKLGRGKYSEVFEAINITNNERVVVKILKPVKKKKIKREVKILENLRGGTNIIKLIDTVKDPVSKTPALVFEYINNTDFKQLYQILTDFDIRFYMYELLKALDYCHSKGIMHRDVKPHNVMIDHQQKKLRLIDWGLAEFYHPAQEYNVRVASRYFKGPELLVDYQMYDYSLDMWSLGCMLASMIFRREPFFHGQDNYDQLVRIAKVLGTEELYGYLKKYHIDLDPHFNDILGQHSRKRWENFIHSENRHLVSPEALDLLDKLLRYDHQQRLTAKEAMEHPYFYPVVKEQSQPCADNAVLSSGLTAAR
Sequence of RPS6KA1 KD2 (human) (Q15418 whole entry, looked up): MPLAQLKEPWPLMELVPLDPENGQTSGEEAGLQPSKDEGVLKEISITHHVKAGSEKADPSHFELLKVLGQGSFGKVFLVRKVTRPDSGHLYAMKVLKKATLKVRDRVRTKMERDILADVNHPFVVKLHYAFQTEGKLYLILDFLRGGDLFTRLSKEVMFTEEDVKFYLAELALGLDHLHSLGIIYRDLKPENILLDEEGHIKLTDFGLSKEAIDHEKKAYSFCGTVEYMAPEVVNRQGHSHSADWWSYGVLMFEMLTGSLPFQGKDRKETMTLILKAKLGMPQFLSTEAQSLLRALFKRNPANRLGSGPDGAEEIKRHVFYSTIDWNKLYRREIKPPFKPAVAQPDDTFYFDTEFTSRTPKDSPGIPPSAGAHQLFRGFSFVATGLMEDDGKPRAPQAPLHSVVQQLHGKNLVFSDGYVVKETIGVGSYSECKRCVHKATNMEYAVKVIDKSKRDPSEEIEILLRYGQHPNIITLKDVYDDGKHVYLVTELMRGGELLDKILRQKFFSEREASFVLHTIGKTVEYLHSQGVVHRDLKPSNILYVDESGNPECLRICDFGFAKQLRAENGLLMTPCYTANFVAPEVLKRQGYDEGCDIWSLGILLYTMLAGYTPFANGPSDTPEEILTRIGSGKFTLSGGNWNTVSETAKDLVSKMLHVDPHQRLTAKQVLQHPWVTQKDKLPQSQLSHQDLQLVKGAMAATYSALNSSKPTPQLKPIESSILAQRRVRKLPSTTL
Sequence of PLK2 (human) (Q9NYY3 whole entry, looked up): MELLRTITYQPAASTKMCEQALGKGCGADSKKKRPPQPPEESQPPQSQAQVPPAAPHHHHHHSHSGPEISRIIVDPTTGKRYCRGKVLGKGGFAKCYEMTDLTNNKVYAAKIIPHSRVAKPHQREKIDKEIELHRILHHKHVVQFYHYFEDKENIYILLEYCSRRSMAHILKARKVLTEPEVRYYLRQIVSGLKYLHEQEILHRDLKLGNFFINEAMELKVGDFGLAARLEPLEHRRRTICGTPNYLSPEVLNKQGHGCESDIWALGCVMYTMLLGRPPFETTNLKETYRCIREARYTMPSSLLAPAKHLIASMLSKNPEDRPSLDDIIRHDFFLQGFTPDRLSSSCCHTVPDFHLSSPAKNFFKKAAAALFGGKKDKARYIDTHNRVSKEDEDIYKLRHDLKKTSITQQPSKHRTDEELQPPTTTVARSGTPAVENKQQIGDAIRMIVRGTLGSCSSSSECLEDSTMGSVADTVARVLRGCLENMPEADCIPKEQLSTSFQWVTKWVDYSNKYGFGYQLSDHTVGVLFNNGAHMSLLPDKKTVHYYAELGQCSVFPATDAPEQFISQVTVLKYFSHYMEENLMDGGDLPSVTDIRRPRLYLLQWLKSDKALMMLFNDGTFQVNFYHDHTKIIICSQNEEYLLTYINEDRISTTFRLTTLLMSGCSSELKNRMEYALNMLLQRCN
Sequence of AURKA (human) (O14965 whole entry, looked up): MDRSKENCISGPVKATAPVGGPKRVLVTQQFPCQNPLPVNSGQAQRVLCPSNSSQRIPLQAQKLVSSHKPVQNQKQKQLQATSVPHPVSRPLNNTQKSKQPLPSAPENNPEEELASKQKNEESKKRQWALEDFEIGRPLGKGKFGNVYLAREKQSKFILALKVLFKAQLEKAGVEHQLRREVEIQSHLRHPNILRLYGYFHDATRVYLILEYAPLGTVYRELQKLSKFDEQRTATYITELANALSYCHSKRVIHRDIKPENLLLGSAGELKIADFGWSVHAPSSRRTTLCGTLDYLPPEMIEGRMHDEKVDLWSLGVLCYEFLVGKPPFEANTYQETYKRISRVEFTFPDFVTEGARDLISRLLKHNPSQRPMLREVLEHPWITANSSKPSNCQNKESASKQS

| Structure (SMILES) | kinase still bound, per cent of control (KIT (human)) [%] | kinase still bound, per cent of control (PLK2 (human)) [%] | kinase still bound, per cent of control (CSNK2A2 (human)) [%] | kinase still bound, per cent of control (PAK1 (human)) [%] | kinase still bound, per cent of control (AURKA (human)) [%] | kinase still bound, per cent of control (FGFR4 (human)) [%] | kinase still bound, per cent of control (ULK3 (human)) [%] | kinase still bound, per cent of control (RPS6KA1 KD2 (human)) [%] | kinase still bound, per cent of control (SRC (human)) [%] | kinase still bound, per cent of control (GRK1 (human)) [%] | kinase still bound, per cent of control (STK17B (human)) [%] | kinase still bound, per cent of control (SIK1 (human)) [%] | kinase still bound, per cent of control (STK24 (human)) [%] | kinase still bound, per cent of control (CSF1R (human)) [%] | kinase still bound, per cent of control (MATK (human)) [%] | kinase still bound, per cent of control (STK17A (human)) [%] | kinase still bound, per cent of control (MAP4K3 (human)) [%] | kinase still bound, per cent of control [1] [%] | kinase still bound, per cent of control (ANKK1 (human)) [%] | kinase still bound, per cent of control (MAP3K10 (human)) [%] | also measured |
| --- | --- | --- | --- | --- | --- | --- | --- | --- | --- | --- | --- | --- | --- | --- | --- | --- | --- | --- | --- | --- | --- |
| COc1cc(N2CCN(C)CC2)ccc1Nc1ncc2c(n1)N(C)c1ccccc1C(=O)N2C | 100 | 100 | 100 | 100 | 100 | 5.6 | 100 | 18 | 100 | 100 | 100 | 100 | 100 | 16 | 100 | 100 | 100 | 100 | 100 | 100 | kinase still bound, per cent of control (CaMK1 (human)): 100%; kinase still bound, per cent of control (MAPKAPK2 (human)): 100%; kinase still bound, per cent of control (MYLK2 (human)): 100%; kinase still bound, per cent of control (MAP3K15 (human)): 100%; kinase still bound, per cent of control (GSK3B (human)): 100%; kinase still bound, per cent of control (CHEK2 (human)): 30%; kinase still bound, per cent of control (MERTK (human)): 100%; kinase still bound, per cent of control (RPS6KA4 KD2 (human)): 100%; kinase still bound, per cent of control (GAK (human)): 9.8%; kinase still bound, per cent of control (ROCK1 (human)): 100%; kinase still bound, per cent of control (MAP2K1 (human)): 100%; kinase still bound, per cent of control (EIF2AK2 (human)): 100%; kinase still bound, per cent of control (SYK (human)): 100%; kinase still bound, per cent of control (PIK3CG (human)): 31%; kinase still bound, per cent of control (IRAK1 (human)): 100%; kinase still bound, per cent of control (YES1 (human)): 100% |
| CCN(CC)CCCCNc1ncc2c(n1)N(C)C(=O)N(c1c(Cl)c(OC)cc(OC)c1Cl)C2 | 6.7 | 100 | 100 | 100 | 100 | 0.75 | 100 | 100 | 100 | 100 | 100 | 100 | 13 | 0.15 | 100 | 100 | 100 | 100 | 100 | 100 | kinase still bound, per cent of control (CaMK1 (human)): 100%; kinase still bound, per cent of control (MAPKAPK2 (human)): 100%; kinase still bound, per cent of control (MYLK2 (human)): 100%; kinase still bound, per cent of control (MAP3K15 (human)): 100%; kinase still bound, per cent of control (GSK3B (human)): 100%; kinase still bound, per cent of control (CHEK2 (human)): 100%; kinase still bound, per cent of control (MERTK (human)): 100%; kinase still bound, per cent of control (RPS6KA4 KD2 (human)): 100%; kinase still bound, per cent of control (GAK (human)): 100%; kinase still bound, per cent of control (ROCK1 (human)): 100%; kinase still bound, per cent of control (MAP2K1 (human)): 100%; kinase still bound, per cent of control (EIF2AK2 (human)): 100%; kinase still bound, per cent of control (SYK (human)): 100%; kinase still bound, per cent of control (PIK3CG (human)): 100%; kinase still bound, per cent of control (IRAK1 (human)): 100%; kinase still bound, per cent of control (YES1 (human)): 100% |
| CS(=O)(=O)N1CCN(Cc2cc3nc(-c4cccc5[nH]ncc45)nc(N4CCOCC4)c3s2)CC1 | 100 | 100 | 100 | 100 | 100 | 100 | 100 | 100 | 100 | 100 | 100 | 100 | 100 | 100 | 100 | 100 | 100 | 100 | 100 | 100 | kinase still bound, per cent of control (CaMK1 (human)): 100%; kinase still bound, per cent of control (MAPKAPK2 (human)): 100%; kinase still bound, per cent of control (MYLK2 (human)): 100%; kinase still bound, per cent of control (MAP3K15 (human)): 100%; kinase still bound, per cent of control (GSK3B (human)): 100%; kinase still bound, per cent of control (CHEK2 (human)): 100%; kinase still bound, per cent of control (MERTK (human)): 100%; kinase still bound, per cent of control (RPS6KA4 KD2 (human)): 100%; kinase still bound, per cent of control (GAK (human)): 100%; kinase still bound, per cent of control (ROCK1 (human)): 100%; kinase still bound, per cent of control (MAP2K1 (human)): 100%; kinase still bound, per cent of control (EIF2AK2 (human)): 100%; kinase still bound, per cent of control (SYK (human)): 100%; kinase still bound, per cent of control (IRAK1 (human)): 100%; kinase still bound, per cent of control (YES1 (human)): 100% |
